Results: publication PMC8580996, “2-Oxoglutarate derivatives can selectively enhance or inhibit the activity of human oxygenases” (Nature Communications, 2021)
Several values for one entry are separate records, joined by “and”; a condition that tells them apart may be missing. Equal values may be shown once. Read-outs that look alike come from different tables or passages of the source.

How the values were obtained:
AspH [1] = molecular target: T1, AspH (Homo sapiens, UniProt Q12797); conditions: cited from earlier work
T1 construct: the tetratricopeptide repeat domain (His6-AspH315-758), was produced and purified as previously reported; made in house
T1 sequence (Q12797 315-758): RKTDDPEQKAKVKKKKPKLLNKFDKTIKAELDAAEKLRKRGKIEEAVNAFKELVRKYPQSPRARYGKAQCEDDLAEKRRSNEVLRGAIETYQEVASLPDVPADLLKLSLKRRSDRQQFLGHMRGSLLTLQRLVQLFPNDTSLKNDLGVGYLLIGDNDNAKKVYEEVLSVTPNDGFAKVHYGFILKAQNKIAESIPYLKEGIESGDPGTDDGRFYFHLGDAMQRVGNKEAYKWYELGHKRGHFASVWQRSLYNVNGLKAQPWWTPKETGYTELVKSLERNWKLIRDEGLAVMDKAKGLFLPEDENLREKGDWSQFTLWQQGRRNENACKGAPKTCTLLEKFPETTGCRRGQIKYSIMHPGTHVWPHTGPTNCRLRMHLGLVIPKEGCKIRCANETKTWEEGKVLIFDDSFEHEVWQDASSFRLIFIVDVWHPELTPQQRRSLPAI

AspH [2] = molecular target: T1, AspH; design: method as in PMID 34163896; conditions: hFX-CP101–119 substrate, 330 μM 2OG or 2OG derivative, t = 15 min; cited from earlier work
FIH [3] = molecular target: T2, FIH (Homo sapiens, UniProt Q9NWT6); assay: SPE-MS FIH turnover (cosubstrate) assay in the absence of 2OG; format: biochemical; conditions: 330 μM 2OG or 2OG derivative, no 2OG, t = 15 min
T2 sequence (Q9NWT6 whole entry): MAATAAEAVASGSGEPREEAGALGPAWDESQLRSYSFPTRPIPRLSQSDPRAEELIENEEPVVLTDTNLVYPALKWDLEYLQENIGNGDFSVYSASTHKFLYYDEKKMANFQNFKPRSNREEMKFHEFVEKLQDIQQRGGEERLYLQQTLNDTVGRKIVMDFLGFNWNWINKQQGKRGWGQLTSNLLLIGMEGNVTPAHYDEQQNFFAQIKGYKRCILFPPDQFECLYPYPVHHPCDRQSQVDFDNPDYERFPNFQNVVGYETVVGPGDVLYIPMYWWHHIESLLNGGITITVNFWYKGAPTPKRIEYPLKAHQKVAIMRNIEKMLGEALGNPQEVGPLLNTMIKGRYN
Method: The ability of 35 synthetic C3/C4-substituted 2OG derivatives, which were prepared via a reported procedure (Supplementary Fig. 1 and Supplementary Methods)[21], to sustain catalysis by purified recombinant FIH in the absence of 2OG was examined using an assay directly monitoring substrate depletion and product formation (i.e., a +16 Da mass shift) by solid-phase extraction (SPE) coupled to mass spectrometry (SPE-MS)[44],[45]. […] (i.e. CA1–20)[47], were used as FIH substrates to test for potential substrate-dependent differences in terms of cosubstrate analog selectivity.
Assay samples were aspirated under vacuum for 0.6 s and loaded onto a C4 SPE cartridge. After loading, the C4 SPE cartridge was washed with 0.1%v/v aqueous formic acid to remove non-volatile buffer salts (5.5 s, 1.5 mL/min). […] The mass spectrometer was operated using the MassHunter Workstation B.08.00 software (Agilent), the mass spectrometer parameters were: capillary voltage (4000 V), nozzle voltage (1000 V), fragmentor voltage (365 V), gas temperature (280 °C), gas flow (13 L/min), sheath gas temperature (350 °C), sheath gas flow (12 L/min). […] Data were exported into Microsoft Excel and used to calculate the % conversion of the hydroxylation reaction using the equation: % conversion = 100 × (integral product peptide)/(integral substrate peptide+integral product peptide). […] Z′-factors were calculated according to the cited literature using Microsoft Excel (Supplementary Fig. 26)[83].

FIH [4] = molecular target: T2, FIH; assay: SPE-MS FIH inhibition assay; format: biochemical; for IC50 FIH: 0.15 µM FIH
Method: FIH inhibition assays were performed as described, using cosubstrate/cofactor stock solutions (L-ascorbic acid, LAA: 50 mM in MQ-grade water; 2-oxoglutarate, 2OG: 10 mM in MQ-grade water; ammonium iron(II) sulfate hexahydrate, FAS, (NH4)2Fe(SO4)2·6H2O: 400 mM in 20 mM HCl diluted to 1 mM in MQ-grade water), which were freshly prepared from commercially-sourced solids (Sigma Aldrich).
Dimethyl sulfoxide (DMSO) solutions of the 2OG derivatives were dry dispensed across 384-well polypropylene assay plates (Greiner) in an approximately threefold and 11-point dilution series (100 μM top concentration; the final DMSO assay concentration was kept constant at 0.5%v/v) using an ECHO 550 acoustic dispenser (Labcyte). […] Each reaction was performed in technical duplicates in adjacent wells of the assay plates; additionally, assays were performed in two independent duplicates on different days using different inhibitor solutions.
The Enzyme Mixture (25 μL/well), containing 0.3 μM His6-FIH in buffer (50 mM Tris, 50 mM NaCl, pH 7.5), was dispensed across the inhibitor-containing 384-well assay plates with a multidrop dispenser (ThermoFischer Scientific) at 20 °C under an ambient atmosphere. The plates were subsequently centrifuged (1000 rpm, 15 s) and incubated for 15 min at 20 °C. The Substrate Mixture (25 μL/well), containing 10.0 μM HIF-1α788–822[37] substrate, 200 μM LAA, 20.0 μM 2OG, and 20.0 μM FAS in buffer (50 mM Tris, 50 mM NaCl, pH 7.5), was added using the multidrop dispenser. The plates were centrifuged (1000 rpm, 15 s) and after incubating for 15 min, the enzyme reaction was stopped by the addition of 10%v/v aqueous formic acid (5 μL/well). The plates were then centrifuged (1000 rpm, 30 s) and analyzed by MS.
MS-analyses were performed using a RapidFire RF 365 high-throughput sampling robot (Agilent) attached to an iFunnel Agilent 6550 accurate-mass quadrupole time-of-flight mass spectrometer operated in the positive ionization mode. Assay samples were aspirated under vacuum for 0.6 s and loaded onto a C4 SPE cartridge. After loading, the C4 SPE cartridge was washed with 0.1%v/v aqueous formic acid to remove non-volatile buffer salts (5.5 s, 1.5 mL/min). […] The mass spectrometer was operated using the MassHunter Workstation B.08.00 software (Agilent), the mass spectrometer parameters were: capillary voltage (4000 V), nozzle voltage (1000 V), fragmentor voltage (365 V), gas temperature (280 °C), gas flow (13 L/min), sheath gas temperature (350 °C), sheath gas flow (12 L/min). The m/z + 2 (for CA1–20) or +3 (for HIF-1α788–822) charge states of the peptide (substrate) and the hydroxylated peptide (product) were used to extract ion chromatogram data, peak areas were integrated using RapidFire Integrator 4.3.0 (Agilent). Data were exported into Microsoft Excel and used to calculate the % conversion of the hydroxylation reaction using the equation: % conversion = 100 × (integral product peptide)/(integral substrate peptide+integral product peptide). […] Z′-factors were calculated according to the cited literature using Microsoft Excel (Supplementary Fig. 26)[83].
SPE-MS FIH inhibition assays were performed as described in the Methods section.
Tris, 50 mM NaCl, pH 7.5, 20 °C). […]

[5] = 0.05 μM AspH, 1.0 μM hFX-CP101-119, 3.0 μM 2OG, ref 21 (supplementary ref 1)
[6] = […] FIH, 5.0 μM HIF-1α788-822, 10 μM 2OG, mean of two runs
[7] = […] FIH, 5.0 μM HIF-1α788-822, 10 μM 2OG, mean of two runs, read-out: IC50 FIH
[8] = source data of Table 3, single independent replicates, read-out: FIH IC50, independent replicate

| SMILES | FIH activity, %-substrate conversion (FIH [3]; CA1–20 substrate) | FIH activity, %-substrate conversion (FIH [3]; HIF-1α788–822 substrate) | IC50 FIH (FIH [4]; [6]) | selectivity of AspH over FIH inhibition as judged by IC50-values (FIH [4]) | IC50 (FIH [4]; [7]) [µM] | IC50 (FIH [4]; [8]) | FIH IC50, independent replicate (FIH [4]; source data of Table 3, single independent replicates) | IC50 AspH (AspH [1]; [5]) | AspH activity, %-substrate conversion (AspH [2]) [%] | IC50 (AspH [1]; [5]) [µM] | IC50 (AspH [1]; NOFD control, supplementary ref 13) [µM] |
| --- | --- | --- | --- | --- | --- | --- | --- | --- | --- | --- | --- |
| O=C(O)C(=O)c1ccc(C(=O)O)cc1F [compound 29] | ^c<1% ^d<1% | ^c<1% ^d<1% | inactive | – | – | – | – | inactive | ~45 | – | – |
| CC(C)CC(CC(=O)C(=O)O)C(=O)O (stereo not shown) [compound 16, 4-isobutyl-2OG] | ~3% | < 1% | – | ~ 70 fold | – | – | – | – | <1 | ~0.5 | – |
| CC1(C)C(C(=O)O)C1C(=O)C(=O)O (stereo not shown) [compound 21] | ^c<1% ^d<1% | ^c<1% ^d<1% | – | – | 19.4 | – | – | – | <1 | – | – |
| O=C(O)C(=O)c1ccc(C(=O)O)s1 [compound 35] | ^c<1% ^d<1% | ^c<1% ^d<1% | inactive | – | – | – | not inhibiting | – | ~15 | – | – |
| O=C(O)C(=O)c1ccc(C(=O)O)cc1Br [compound 31] | ^c<1% ^d<1% | ^c<1% ^d<1% | inactive | – | – | – | – | inactive | ~20 | – | – |
| O=C(O)C(=O)N[C@H](Cc1ccccc1)C(=O)O [NOFD, N-oxalyl-D-phenylalanine, reference compound] | – | – | – | – | – | – | – | – | – | – | 15.5 |
| O=C(O)C(=O)[C@@H]1[C@@H](C(=O)O)[C@@H]2C=C[C@H]1C2 (racemic) [compound 24] | ^c<1% ^d<1% | ^c<1% ^d<1% | inactive | – | – | – | – | – | <1 | – | – |
| CC(C)(C)CCC(CC(=O)C(=O)O)C(=O)O (stereo not shown) [compound 17] | ^c<1% ^d<1% | ^c<1% ^d<1% | – | – | 38.9 | – | – | – | <1 | – | – |
| O=C(O)C(=O)C1(C(=O)O)CC1 [compound 23] | ^c<1% ^d<1% | ^c<1% ^d<1% | inactive | – | – | – | – | – | <1 | – | – |

The next lines start with results.

| FIH activity, %-substrate conversion (FIH [3]; CA1–20 substrate) | FIH activity, %-substrate conversion (FIH [3]; HIF-1α788–822 substrate) | IC50 FIH (FIH [4]; [6]) | selectivity of AspH over FIH inhibition as judged by IC50-values (FIH [4]) | IC50 (FIH [4]; [7]) [µM] | IC50 (FIH [4]; [8]) | FIH IC50, independent replicate (FIH [4]; source data of Table 3, single independent replicates) | SMILES | IC50 AspH (AspH [1]; [5]) | AspH activity, %-substrate conversion (AspH [2]) [%] | IC50 (AspH [1]; [5]) [µM] | IC50 (AspH [1]; NOFD control, supplementary ref 13) [µM] |
| --- | --- | --- | --- | --- | --- | --- | --- | --- | --- | --- | --- |
| ^c<1% ^d<1% | ^c<1% ^d<1% | – | – | 5.7 | – | – | O=C(O)CC(CCCc1ccccc1)C(=O)C(=O)O (stereo not shown) [compound 5] | – | <1 | – | – |
| ^c<1% ^d<1% | ^c<1% ^d<1% | – | – | – | 3.42 µM and 3.64 µM | – | O=C(O)C(=O)CC(Cc1ccccc1)C(=O)O (stereo not shown) [compound 19, 4-benzyl-2OG] | – | <1 | – | – |
| ~70% | ~5% | – | – | 14.8 | 15.2 µM and 14.3 µM | – | CCCC(CC(=O)C(=O)O)C(=O)O (stereo not shown) [compound 15, 4-propyl-2OG] | – | <1 | – | – |
| ^c<1% ^d<1% | ^c<1% ^d<1% | inactive | – | – | – | – | Cc1cc(C)cc(CC(CC(=O)O)C(=O)C(=O)O)c1 (stereo not shown) [compound 10] | – | <1 | – | – |
| ^c<1% ^d<1% | ^c<1% ^d<1% | inactive | – | – | – | – | O=C(O)C(=O)c1cccc(C(=O)O)c1 [compound 27] | inactive | <1 | – | – |
| ^c<1% ^d<1% | ^c<1% ^d<1% | inactive | – | – | – | – | O=C(O)C(=O)c1ccccc1C(=O)O [compound 26] | inactive | <1 | – | – |
| ~20% | ~2% | – | – | – | 4.54 µM and 4.52 µM | – | CCC(CC(=O)O)C(=O)C(=O)O (stereo not shown) [compound 2, 3-ethyl 2OG] | – | <1 | ~1.2 | – |
| ^c<1% ^d<1% | ^c<1% ^d<1% | – | – | 31 | – | – | CC(C)(C)CCC(CC(=O)O)C(=O)C(=O)O (stereo not shown) [compound 4] | – | <1 | – | – |
| ^c<1% ^d<1% | ^c<1% ^d<1% | – | – | 3.6 | – | – | COc1ccc(CC(CC(=O)O)C(=O)C(=O)O)cc1 (stereo not shown) [compound 9] | – | <1 | – | – |
| ^c<1% ^d<1% | ^c<1% ^d<1% | – | – | 2.5 | – | – | O=C(O)C(=O)CC(Cc1ccc2ccccc2c1)C(=O)O (stereo not shown) [compound 20] | – | <1 | – | – |
| ^c<1% ^d<1% | ^c<1% ^d<1% | – | – | 12.7 | – | – | O=C(O)CC(Cc1ccc(OC(F)(F)F)cc1)C(=O)C(=O)O (stereo not shown) [compound 8] | – | <1 | – | – |
| ^c<1% ^d<1% | ^c<1% ^d<1% | – | – | 7.5 | – | – | O=C(O)CC(Cc1ccc(F)cc1)C(=O)C(=O)O (stereo not shown) [compound 7] | – | <1 | – | – |
| ^c<1% ^d<1% | ^c<1% ^d<1% | – | – | 6.4 | 5.76 µM and 7.01 µM | – | O=C(O)CC(Cc1ccccc1)C(=O)C(=O)O (stereo not shown) [compound 6] | – | <1 | – | – |
